Laboratory results published in patent US20230346948A1, “Lipid conjugated peptide inhibitors of PICK1” (University of Copenhagen, priority 2020, published 2023).
“Also recorded” adds a separate entry of the source.

Tests used:
[1] = test system: inflammatory pain (CFA model); test: Complete Freund's Adjuvant (CFA) model of inflammatory pain, von Frey; type: in vivo, mice; conditions: for relief of evoked pain (paw withdrawal threshold): day 2 after CFA
Protocol: Inflammatory pain: Animals were habituated to the experimental room for a minimum of 60 min before initiation of the experiment. Mechanical pain threshold was determined by von Frey measurements of both hind paws. Injury was induced on the right hind paw, whereas the contralateral left hind paw was used as internal control of the animal. Von Frey filaments ranging from 0.04 to 2 g (g=gram-forces) (0.04, 0.07, 0.16, 0.4, 0.6, 1.0, 1.4, 2.0) were used for determination of mechanical pain threshold. In the current experiment filaments in ascending order were applied to the frontocentral plantar surface of the hind paws. Mice were placed in PVC plastic boxes (11.5 cm×14 cm) on a wire mesh, and allowed 30 min habituation prior of […]. Each von Frey hair was applied five times with adequate resting periods between each application and number of withdrawals recorded. The withdrawal threshold was determined as the von Frey filament eliciting at least 3 positive trials out of the 5 applications in two consecutive filaments. A positive trial was defined as sudden paw withdrawal, flinching and/or paw licking induced by the filament. The inflammatory pain was induced by injection of 50 μL undiluted Complete Freund's Adjuvant (CFA) (F5881, Sigma) unilaterally into the intraplantar surface of the right hind paw, whereas control mice were injected with the same amount of 0.9% saline (B. Braun, Germany). All intraplantar injections were performed with and insulin needle (0.3 mL BD Micro-Fine) while the animal was under isoflurane anesthesia (2%) for maximum 60 seconds. Von Frey was applied up to 11 days after unilateral CFA injection depending on the experiment. […] Statistical analysis was performed using GraphPad Prism 6.0. Two-way RM ANOVA followed by Bonferroni's post-hoc test. Significance level set to p<0.05.
Inflammatory pain (CFA model): Animals were habituated to the experimental room for a minimum of 60 min before initiation of the experiment. Mechanical pain threshold was determined by von Frey measurements of both hind paws. Injury was induced on the right hind paw, whereas the contralateral left hind paw was used as internal control of the animal.
Von Frey filaments ranging from 0.04 to 2 g (g=gram-forces) (0.04, 0.07, 0.16, 0.4, 0.6, 1.0, 1.4, 2.0) were used for determination of mechanical pain threshold. In the current experiment filaments in ascending order were applied to the frontocentral plantar surface of the hind paws. Mice were placed in PVC plastic boxes (11.5 cm×14 cm) on a wire mesh, and allowed 30 min habituation prior of testing. Each von Frey hair was applied five times with adequate resting periods between each application and number of withdrawals recorded. The withdrawal threshold was determined as the von Frey filament eliciting at least 3 positive trials out of the 5 applications in two consecutive filaments. A positive trial was defined as sudden paw withdrawal, flinching and/or paw licking induced by the filament.
The inflammatory pain was induced by injection of 50 μL undiluted Complete Freund's Adjuvant (CFA) (F5881, Sigma) unilaterally into the intraplantar surface of the right hind paw, whereas control mice were injected with the same amount of 0.9% saline (B. Braun, Germany). All intraplantar injections were performed with an insulin needle (0.3 mL BD Micro-Fine) while the animal was under isoflurane anesthesia (2%) for maximum 60 seconds. Von Frey was applied up to 6 days after unilateral CFA injection depending on the experiment. The peptides were administered s.c. (10 μL/g)), and at different concentrations (0.4 and 2 μmol/kg). Statistical analysis was performed using GraphPad Prism 6.0. Two-way RM ANOVA followed by Dunnett's post-hoc test. Significance level set to p<0.05.

[2] = Small angle X-ray scattering, self-assembly in solution; type: physicochemical
Protocol: Concentration series of […] ranging from 0.18 mg/ml to 9.37 mg/mL was prepared in buffer containing 50 mM Tris (pH 7.4), 125 mM NaCl. Samples were measured at the P12 SAXS Beamline, […], Hamburg, Germany. Preliminary data reduction including radial averaging and conversion of the data into absolute scaled scattering intensity, I(q), as a function of the scattering vector q, where q=4π sin(θ)/λ ([…]=half scattering angle) were done using the standard procedures at the beamline. The modelling of the SAXS data was performed in two ways, firstly using the pair distance distribution function and subsequently using a molecular constrained core-shell model for polydisperse spheres. In brief, it was assumed that the peptide aggregated into polydisperse spherical micelles. Here, the hydrophobic tails form the core and these are surrounded by the hydrophilic part (the shell) in a spherical micelle. […] This was calculated by counting the number of electrons in the molecular structure and multiplying by the scattering length of the electron. For the scattering length density calculations, it was assumed that the molecular volume of the C13 alkyl chain was 377 Å3 as estimated from Tanfords empirical formula (V=27.4+26.9nC) where nC denote the number of carbons. i.e. 13 in this case. The hydrophilic headgroup was as a first estimate assumed to have a mass density corresponding to that of a soluble protein (i.e. 1.35 g/cm^3), this yielded a molecular volume of 2078 Å3. […] Excess scattering length densities were then calculated in relation to water (9.4e101/cm^2). Using this molecular restrained model, the volumes of the core and of the shell were coupled internally through the fitted aggregation number, Nagg. The polydispersity was described by a Gauss function of Nagg. The Gauss was truncated at ±3sigma. The model module “[…]” from the […] software was used for the fitting. As usual a small surface roughness and a small constant background was also necessary for the model to converge. Scattering data was merged; buffer subtracted and binned using WillItRebin with a binning factor of 1.02. The pair distance distribution functions (pddf) were fitted using bayesapp (http://www.bayesapp.org/) in the interval [0.0122-0.4] Å^-1, fitting parameters are reported in the data collection table below.

[3] = pair distance distribution function analysis

## CCCCCCCCCCCCCC(=O)N(CCOCCOCCC(=O)N[C@@H](Cc1c[nH]cn1)C(=O)N[C@@H](Cc1c[nH]c2ccccc12)C(=O)N[C@@H](CC(C)C)C(=O)N[C@@H](CCCCN)C(=O)N[C@H](C(=O)O)C(C)C)CCOCCOCCC(=O)N[C@@H](Cc1c[nH]cn1)C(=O)N[C@@H](Cc1c[nH]c2ccccc12)C(=O)N[C@@H](CC(C)C)C(=O)N[C@@H](CCCCN)C(=O)N[C@H](C(=O)O)C(C)C [myr-NPEG4-(HWLKV)2]
[1]; CFA model, Example 7
  paw withdrawal threshold of uninjured contralateral paw: remained unaltered
[1]; intrathecal 20 μM, 7 μL, 1 and 5 h
  relief of evoked pain (paw withdrawal threshold): significant pain relief at 1 hour and 5 hours
[1]; intrathecal 20 μM, 7 μL, 24 h
  relief of evoked pain (paw withdrawal threshold): no effect 24 hours after administration
[1]; s.c. 2.0 μmol/kg in PBS, day 2-5 after CFA, tested 2 and 5 h
  relief of evoked pain (paw withdrawal threshold), lipid variants: full and highly significant pain relief
[1]; s.c. 2 μmol/kg, tested 1, 5, 24 h
  relief of evoked pain (paw withdrawal threshold): significant pain relief when tested 1 hour post injection
[1]; s.c. 2 μmol/kg, day 5 after CFA
  relief of evoked pain (paw withdrawal threshold), PDZ motif variants: relieved pain
[1]; s.c. 10 μmol/kg, tested 1, 5, 24 h
  relief of evoked pain (paw withdrawal threshold): significant pain relief when tested 1 hour post injection
[1]; s.c. 50 μmol/kg, tested 1, 5, 24 h
  relief of evoked pain (paw withdrawal threshold): significant pain relief when tested 1 hour post injection; also recorded: significant pain relief up to 5 hours post injection
[2]; 300 μM
  n myr-NPEG4-(HWLKV)2, core shell model: 19
[2]; 400 μM
  n myr-NPEG4-(HWLKV)2, core shell model: 22
[2]; 1000 μM
  n myr-NPEG4-(HWLKV)2, core shell model: 22
[2]; 3000 μM
  n myr-NPEG4-(HWLKV)2, core shell model: 21
[2]; 5000 μM
  n myr-NPEG4-(HWLKV)2, core shell model: 19
[2]; core-shell model
  number of individual molecules per micelle: 19-22
  outer radius of spherical core-shell micelle: 20-24 Å
[2]; [3]
  number of individual molecules per assembly: 5-8
  radius of gyration (Rg) of micellar structures: 20-23.6 Å
